In US20080181942A1, “Delta-9-THC compositions and methods for treating symptoms associated with multiple sclerosis” (University of Plymouth, priority 2006, published 2008):

Assays:
[1] = tested on: patients with multiple sclerosis; assay: patient assessment of treatment benefit at visit 8; type: in vivo, human
[2] = tested on: patients with multiple sclerosis; assay: adverse events reported by patients
[3] = tested on: patients with multiple sclerosis; assay: category-rating scales, patient reporting of secondary outcomes; type: in vivo, human; conditions: category rating scale
[4] = tested on: patients with multiple sclerosis with problematic spasticity; assay: Ashworth score of spasticity, randomized placebo-controlled study; type: in vivo, human; conditions: baseline to 13 weeks follow-up (visit 7)

CCCCCc1cc(O)c2c(c1)OC(C)(C)[C@@H]1CCC(C)=C[C@@H]21 (relative stereo) [delta-9-THC, (6aR-trans)-6a,7,8,10a-tetrahydro-6,6,9-trimethyl-3-pentyl-6H-dibenzo[b,d]pyran-1-ol]
Symptom Improvement, Bladder: No ([1]; number of patients): 97 | Symptom Improvement, Bladder: Yes ([1]; number of patients): 67 | Symptom Improvement, Pain: No ([1]; number of patients): 64 | Symptom Improvement, Pain: Yes ([1]; number of patients): 64 | Symptom Improvement, Spasticity: No ([1]; number of patients): 73 | Symptom Improvement, Tremor: No ([1]; number of patients): 67 | Symptom Improvement, Tremor: Yes ([1]; number of patients): 44 | Symptom Improvement, Bladder: No ([1]; percent of patients): 59% | Symptom Improvement, Bladder: Yes ([1]; percent of patients): 40% | Symptom Improvement, Pain: No ([1]; percent of patients): 50% | Symptom Improvement, Pain: Yes ([1]; percent of patients): 50% | Symptom Improvement, Spasticity: No ([1]; percent of patients): 40% | Symptom Improvement, Spasticity: Yes ([1]; percent of patients): 60% | Symptom Improvement, Tremor: No ([1]; percent of patients): 60% | Symptom Improvement, Tremor: Yes ([1]; percent of patients): 40% | incidences of MS relapse ([2]; by comparison with placebo): greatly reduced | Adverse Event: Blocked/insertion of suprapubic catheter ([2]; number reported): 0 | Adverse Event: Constipation ([2]; number reported): 0 | Adverse Event: Grand mal seizure ([2]; number reported): 0 | Adverse Event: MS relapse or possible relapse ([2]; number reported): 1 | Adverse Event: Other ([2]; number reported): 11 | Adverse Event: Pneumonia ([2]; number reported): 2 | Adverse Event: Urinary tract infection ([2]; number reported): 3 | Depression: Deterioration ([3]; number of patients): 42 | Depression: Improvement ([3]; number of patients): 36 | Depression: Same ([3]; number of patients): 47 | Energy: Deterioration ([3]; number of patients): 49 | Energy: Improvement ([3]; number of patients): 61 | Energy: Same ([3]; number of patients): 63 | Irritability: Deterioration ([3]; number of patients): 32 | Irritability: Improvement ([3]; number of patients): 37 | Irritability: Same ([3]; number of patients): 42 | Pain: Deterioration ([3]; number of patients): 22 | Pain: Improvement ([3]; number of patients): 64 | Pain: Same ([3]; number of patients): 43 | Shake/tremor: Deterioration ([3]; number of patients): 32 | Shake/tremor: Improvement ([3]; number of patients): 52 | Shake/tremor: Same ([3]; number of patients): 44 | Sleep: Deterioration ([3]; number of patients): 24 | Sleep: Improvement ([3]; number of patients): 71 | Sleep: Same ([3]; number of patients): 57 | Spasms: Deterioration ([3]; number of patients): 27 | Spasms: Improvement ([3]; number of patients): 81 | Spasms: Same ([3]; number of patients): 49 | Spasticity: Deterioration ([3]; number of patients): 47 | Spasticity: Improvement ([3]; number of patients): 89 | Spasticity: Same ([3]; number of patients): 40 | Tiredness: Deterioration ([3]; number of patients): 76 | Tiredness: Improvement ([3]; number of patients): 35 | Tiredness: Same ([3]; number of patients): 46 | Depression: Deterioration ([3]; percent of patients): (34%) | Depression: Improvement ([3]; percent of patients): (29%) | Depression: Same ([3]; percent of patients): (38%) | Energy: Deterioration ([3]; percent of patients): (28%) | Energy: Improvement ([3]; percent of patients): (35%) | Energy: Same ([3]; percent of patients): (36%) | Irritability: Deterioration ([3]; percent of patients): (29%) | Irritability: Improvement ([3]; percent of patients): (33%) | Irritability: Same ([3]; percent of patients): (38%) | Pain: Deterioration ([3]; percent of patients): (17%) | Pain: Improvement ([3]; percent of patients): (50%) | Pain: Same ([3]; percent of patients): (33%) | Shake/tremor: Deterioration ([3]; percent of patients): (25%) | Shake/tremor: Improvement ([3]; percent of patients): (41%) | Shake/tremor: Same ([3]; percent of patients): (34%) | Sleep: Deterioration ([3]; percent of patients): (16%) | Sleep: Improvement ([3]; percent of patients): (47%) | Sleep: Same ([3]; percent of patients): (38%) | Spasms: Deterioration ([3]; percent of patients): (22%) | Spasms: Improvement ([3]; percent of patients): (49%) | Spasms: Same ([3]; percent of patients): (29%) | Spasticity: Deterioration ([3]; percent of patients): (27%) | Spasticity: Improvement ([3]; percent of patients): (51%) | Spasticity: Same ([3]; percent of patients): (23%) | Tiredness: Deterioration ([3]; percent of patients): (48%) | Tiredness: Improvement ([3]; percent of patients): (22%) | Tiredness: Same ([3]; percent of patients): (29%) | Mean (SD) change in Ashworth score, upper-body muscle groups (baseline minus follow-up) [4]: 0.48 (4.70)
